{"source": "patent US20120301895A1", "about": "“METHODS OF MODULATING BINDING OF SON OF SEVENLESS TO PHOSPHATIDIC ACID AND IDENTIFYING COMPOUNDS THAT MODULATE SUCH BINDING” (THE RESEARCH FOUNDATION OF STATE UNIVERSITY OF NEW YORK, priority 2007, published 2012)", "key": {"[1]": {"target": "T1, PLD2 (Homo sapiens, UniProt O14939)", "T1 construct": "made in house", "T1 sequence (O14939 whole entry)": "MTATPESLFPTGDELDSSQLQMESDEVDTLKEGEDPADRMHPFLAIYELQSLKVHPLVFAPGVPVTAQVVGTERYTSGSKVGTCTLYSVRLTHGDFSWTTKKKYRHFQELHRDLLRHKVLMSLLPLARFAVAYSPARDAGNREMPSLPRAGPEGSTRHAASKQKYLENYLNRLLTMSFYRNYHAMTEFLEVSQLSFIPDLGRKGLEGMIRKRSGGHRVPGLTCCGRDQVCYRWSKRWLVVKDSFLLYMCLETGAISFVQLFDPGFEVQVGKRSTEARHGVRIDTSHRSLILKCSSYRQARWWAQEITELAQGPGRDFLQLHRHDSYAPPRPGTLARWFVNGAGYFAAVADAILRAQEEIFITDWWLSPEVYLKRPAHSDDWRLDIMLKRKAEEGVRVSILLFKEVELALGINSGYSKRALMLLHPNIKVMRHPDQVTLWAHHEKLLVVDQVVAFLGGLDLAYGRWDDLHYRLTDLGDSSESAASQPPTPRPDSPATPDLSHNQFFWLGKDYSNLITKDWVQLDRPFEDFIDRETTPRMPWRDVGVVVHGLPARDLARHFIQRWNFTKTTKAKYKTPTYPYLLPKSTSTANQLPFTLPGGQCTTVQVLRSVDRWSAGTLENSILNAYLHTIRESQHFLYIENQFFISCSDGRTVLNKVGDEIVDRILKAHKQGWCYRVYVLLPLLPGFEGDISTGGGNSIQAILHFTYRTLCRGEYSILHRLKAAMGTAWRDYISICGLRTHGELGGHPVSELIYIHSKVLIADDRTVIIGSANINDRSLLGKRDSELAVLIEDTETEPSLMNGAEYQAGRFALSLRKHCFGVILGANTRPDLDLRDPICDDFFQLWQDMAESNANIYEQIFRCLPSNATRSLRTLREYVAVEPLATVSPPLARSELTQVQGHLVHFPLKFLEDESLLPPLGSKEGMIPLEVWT", "test": "In vitro PLD activity, exogenous substrate assay, PLD2", "type": "biochemical", "conditions": "purified recombinant PLD2, 30 min at 37° C.", "protocol": "In FIG. 13A, MDA-MB-231 cells were plated as in FIGS. 12A-C and then shifted to either 10% serum or 0.5% serum overnight as indicated. Honokiol (20 μM) or control ethanol was then added for 4 hr as indicated, at which time the cells were harvested and the levels of PBt were determined as in FIGS. 12A-C. The experiment shown is representative of at least three independent experiments. In FIG. 13B, the effect of honokiol on the activity of PLD isoforms was measured using exogenous substrate assay as described previously (Henage et al., “Kinetic Analysis of a Mammalian Phospholipase D: Allosteric Modulation by Monomeric GTPases, Protein Kinase C, and Polyphosphoinositides,” J. Biol. Chem. 281:3408-17 (2006), which is hereby incorporated by reference in its entirety). […] The amount of background was determined and subtracted using a bovine serum albumin standard. […]\nFor in vivo PLD activity, cells were plated in 60 mm culture dishes in DMEM with 10% serum at a density that would allow them to grow to about 80% confluence after 2 days, then cells were shifted to DMEM containing 0.5% or 10% serum as indicated in the figure legends overnight. […] Briefly, PLD activity was measured by the release of [methyl-^3H] choline from [choline-methyl-^3H]dipalmitoyl-phosphatidylcholine. […]"}, "[2]": {"system": "PLD activity in T24 cells", "test": "In vivo PLD activity in T24 bladder cancer cells", "type": "cell-based, human", "conditions": "honokiol 20 μM, 4 hr", "protocol": "In FIG. 17A, T24 and Calu1 cells (obtained from the American Type Culture Collection) were plated in DMEM containing 10% serum for 48 hr and then shifted to either 10% serum or 0.5% serum overnight as indicated. Honokiol (20 μM) or control ethanol was then added for 4 hr as indicated. [^3H]-Myristate was added with the honokiol. After 4 hr, BtOH (0.7%) was added for 20 min, at which time the cells were harvested and the level of phosphatidyl-BtOH (P-Bt) was determined as in FIGS. 12A-C. The experiments shown are representative of at least two independent experiments. In FIG. 17B, T24 and Calu-1 cells were plated in DMEM with 10% serum for 48 hr then changed to DMEM containing either 10% or 0.5% serum overnight as indicated. […]\nFor in vivo PLD activity, cells were plated in 60 mm culture dishes in DMEM with 10% serum at a density that would allow them to grow to about 80% confluence after 2 days, then cells were shifted to DMEM containing 0.5% or 10% serum as indicated in the figure legends overnight. […] Briefly, PLD activity was measured by the release of [methyl-^3H] choline from [choline-methyl-^3H]dipalmitoyl-phosphatidylcholine. […] Free [methyl-^3H] choline was separated from precipitated lipids and proteins by centrifugation and was analyzed by liquid scintillation counting. […]"}, "[3]": {"system": "MDA-MB-231 human breast cancer cells", "conditions": "Wolf et al. 2007; cited from earlier work"}, "[4]": {"conditions": "mouse models, high concentrations; cited from earlier work"}, "[5]": {"system": "tumor growth", "conditions": "Bai et al. 2003; cited from earlier work"}}}
{"molecule": "C=CCc1ccc(O)c(-c2ccc(O)c(CC=C)c2)c1", "note": "[honokiol, Honokiol]", "values": [{"measurement": "in vitro activity of PLD2", "setting": "[1]", "value": "no significant effect"}, {"measurement": "stress-induced PLD activity", "setting": "[2]; 0.5% serum", "value": "suppressed"}, {"measurement": "PLD activity observed in the presence of serum", "setting": "[2]; 10% serum", "value": "little effect"}, {"measurement": "growth of MDA-MB-231 cells in mouse xenograft", "setting": "[3]", "value": "suppress the growth"}, {"measurement": "tolerability", "setting": "[4]", "value": "well tolerated"}, {"measurement": "tumor growth in mouse xenografts", "setting": "[5]", "value": "blocked tumor growth"}]}
